Measured values taken from patent US11596639B2, “Substituted indole Mcl-1 inhibitors” (Vanderbilt University, priority 2016, dated 2023).

What was measured:
[1] = molecular target: Mcl-1 (Homo sapiens (Human), UniProt Q07820); test: TR-FRET binding assay, FITC-Bak peptide and MBP-tagged Mcl-1; settings: read-out: Ki for Inhibition of Mcl-1 by TR-FRET assay
Description: Compounds are diluted in DMSO in a 16-point, semilog serial dilution scheme. […] The plate was mixed and incubated for 3 hours at room temperature. […] TR-FRET signal is plotted and IC50 and Ki values are calculated in the same manner as the fluorescence polarization anisotropy based competition assays.

[2] = tested on: H929 human cancer cell lines; test: Cellular viability / proliferation (Cell TiterGlo, 72 h); type: cell-based; settings: Homo sapiens, NCI-H929, 72 h, read-out: GI50 on cellular proliferation of H929 human cancer cell lines, H929 cells, 72 h, Cell TiterGlo, 10% FBS
How it was run: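 Compounds were added as 2-fold serial dilutions from 50 μM (final DMSO <1%) to H929 cells seeded 1,000 per well in 10% FBS medium one day earlier.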

Mcl-1, sequence (Q07820 172-327): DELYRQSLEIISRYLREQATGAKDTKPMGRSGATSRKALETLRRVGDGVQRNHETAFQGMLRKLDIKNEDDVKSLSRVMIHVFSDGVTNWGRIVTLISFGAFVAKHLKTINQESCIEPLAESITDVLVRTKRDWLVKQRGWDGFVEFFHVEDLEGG

Cc1cc(N2C[C@@H](C)n3c(c(CCCOc4cc(C)c(Cl)c(C)c4)c4ccc(Cl)c(-c5c(C)nn(C)c5C)c43)C2=O)c2c(c1)cc(C(=O)O)n2CC(=O)N1CCOCC1 [Example 598, (R)-7-(7-chloro-10-(3-(4-chloro-3,5-dimethylphenoxy)propyl)-4-methyl-1-oxo-6-(1,3,5-trimethyl-1H-pyrazol-4-yl)-3,4-dihydropyrazino[1,2-a]indol-2(1H)-yl)-5-methyl-1-(2-morpholino-2-oxoethyl)-1H-indole-2-carboxylic acid]
Ki [1]: < 0.2 nM | GI50 [2]: 1900 nM
